According to patent publication US11655477B2, “Methods for thaxtomin production and engineered non-native Streptomyces with increased thaxtomin production” (priority 2017, dated 2023):
“Also recorded” adds a separate entry of the source. Like-named read-outs stand apart in the source and are kept apart here.

Tests used:
Jurkat cells = assay: MTT assay to characterize cytotoxicity, Jurkat cells; type: cell-based, human; conditions: for cytotoxicity toward Jurkat cell line (in words): PBS as negative control; for IC30 (30% inhibitory concentration) toward Jurkat cells: human T-cell leukemia Jurkat, MTT, 48 to 72 h
Experimental: (§1) PC-3 and Jurkat cells were cultured in DMEM or RPM11640 medium containing 10% fetal bovine serum and 100 U/mL penicillin and streptomycin, and maintained at 37° C. in a humidified incubator under 5% CO2. The cells (1×10^4 for Jurkat, and 5,000 for PC-3 in 100 μL) were seeded into 96-well plates and incubated overnight. Varying concentrations of purified compounds (0 μM, 12.5 μM, 25 μM, 50 μM and 100 μM) were added to the wells. After incubation at 37° C. for 48 to 72 h, 10 μL of MTT (5 mg/mL) in PBS was added and incubated for 4 h, followed by aspiration of the medium. DMSO (100 μL) was added to each well to dissolve the MTT in the wells, and the plates were agitated for 1 h for recording the absorbance at 570 nm using UV/vis microplate spectrophotometer (BioTek). Three to six replications were performed per treatment of each sample.

cellulose biosynthesis = conditions: background statement; cited from earlier work
PC-3 cells = assay: MTT assay to characterize cytotoxicity, PC-3 cells; type: cell-based, human; conditions: for cytotoxicity toward PC-3 cell line (in words): PC-3, PBS as negative control; for IC30 (30% inhibitory concentration) toward PC-3 cells: prostate cancer PC-3, MTT, 48 to 72 h
Experimental: as §1

radish seedling = assay: Herbicidal activity assay, radish seedling growth inhibition on agar plates; type: in vivo; conditions: for herbicidal activity / growth inhibition toward radish seedling (in words): DMSO as negative control; for IC50: total seedling length after 6 days, percent inhibition relative to DMSO control, four-parameter logistic fit, read-out: I50 (herbicidal activity, radish seedling assay)
Experimental: Serial concentrations (0 to 4 μM) of thaxtomins in DMSO were added into 20 mL of 1.5% warm agar solution with gentle agitation. DMSO was included as the negative control. The solution was then poured into the plate for solidification at room temperature for 30 min. Radish seeds (Burpee) were surface disinfested, pregerminated and selected when the radicle was […] and just emerged from the seed coat. Six radish seedlings were equally located on the surface of each plate with the root ends all pointed in the same direction. Agar plates were covered, sealed with Parafilm. The seedlings in the agar plates grew at room temperature under fluorescent lighting (12 h per day for 6 days), and total seedling lengths were then recorded. Three plates were set up for each dosage of each compound. Percent inhibition relative to the mean growth response in DMSO treated control plates was then calculated. Dose-response curves were fit to a four-parameter logistic model as described in Streibig, J C, et al., 1993 (which is hereby incorporated by reference herein), and Iso values were estimated from these curves.

Compound	cytotoxicity toward Jurkat cell line (in words) (Jurkat cells)	IC30 (30% inhibitory concentration) toward Jurkat cells (Jurkat cells) [µM]	concentration range of inhibition of cellulose biosynthesis (cellulose biosynthesis)	cytotoxicity toward PC-3 cell line (in words) (PC-3 cells)	IC30 (30% inhibitory concentration) toward PC-3 cells (PC-3 cells) [µM]	herbicidal activity / growth inhibition toward radish seedling (in words) (radish seedling)	IC50 (radish seedling) [nM]	IC50 (radish seedling; Raphanus sativus, 144 h) [nM]
CN1C(=O)[C@](O)(Cc2cccc(O)c2)N(C)C(=O)[C@@H]1Cc1c[nH]c2cccc([N+](=O)[O-])c12 [Compound 1, thaxtomin A, reference compound]	weak cytotoxicity	70.84 ± 16.68	in the nM range	weak cytotoxicity	80.28 ± 10.50	potent growth inhibition activity	450 ± 50	
CN1C(=O)C(O)(Cc2ccccc2O)N(C)C(=O)C1Cc1c[nH]c2cccc([N+](=O)[O-])c12 (centres unmarked) [Compound 2, ortho-thaxtomin A]	weak cytotoxicity	56.46 ± 12.04		weak cytotoxicity	42.38 ± 13.62	potent growth inhibition activity	810 ± 40	
CN1C(=O)[C@](O)(Cc2ccccc2)N(C)C(=O)[C@@H]1Cc1c[nH]c2cccc([N+](=O)[O-])c12 [Compound 3, thaxtomin B]	weak cytotoxicity	50.92 ± 13.17		weak cytotoxicity	37.87 ± 13.46			
CN1C(=O)[C@](O)(Cc2cccc(O)c2)N(C)C(=O)[C@@H]1Cc1c[nH]c2ccc(F)c([N+](=O)[O-])c12 [Compound 9, 5-F-thaxtomin A]	weak cytotoxicity	63.26 ± 9.29		weak cytotoxicity	56.76 ± 17.12	potent herbicidal activity; also recorded: potent growth inhibition activity		560 ± 30
